According to US20240140962A1, “5,6-DIHYDROTHIENO[3,4-H]QUINAZOLINE COMPOUND” (MEDSHINE DISCOVERY INC., priority 2021, published 2024):
Where two headings read alike, the source gives them in different places. Each block holds one molecule with its values, some of them ahead of it.

Key:
HCT116 cells = experiment: HCT116 cytological activity in vitro (3D CellTiter-Glo proliferation); assay type: cell-based, human; conditions: 5 days culture, ultra-low adsorption plates
Protocol: McCoy's 5A medium, penicillin/streptomycin antibiotics was purchased from Vicente, and fetal bovine serum was purchased from Biosera. 3D CellTiter-Glo (cell viability chemiluminescence assay reagent) reagent was purchased from Promega. HCT116 cell line was purchased from Nanjing Cobioer Biosciences Co., Ltd. Envision multimode microplate reader (PerkinElmer).
HCT116 cells were seeded in ultra-low adsorption 96-well U-plates, 80 μL of cell suspension per well, which contained 1000 HCT116 cells. Cell plates were cultured overnight in a carbon dioxide incubator.
The compound to be tested was 5-fold diluted to the 9th concentration with a pipette, that is, diluted from 2 mM to 5.12 nM, and a double-well experiment was set up. 78 μL of medium was added to the intermediate plate, and then 2 μL of each well of the gradient diluted compound was transferred to the intermediate plate according to the corresponding position, 20 μL of each well was transferred to the cell plate after mixing well. Compound concentrations transferred to cell plates ranged from 10 μM to 0.0256 nM. Cell plates were cultured in a carbon dioxide incubator for 5 days. Another cell plate was prepared, and the signal value was read as the maximum value (Max value in the following equation) on the day of drug addition to participate in data analysis.
Every 100 μL of cell viability chemiluminescent detection reagent was added to the cell plate, and incubated at room temperature for 10 minutes to stabilize the luminescent signal. A multimode microplate reader was used to read.
The equation (Sample−Min)/(Max−Min)*100% was used to convert the original data into an inhibition rate, and the value of IC50 can be obtained by curve fitting with four parameters (“log(inhibitor) vs. response in GraphPad Prism—Variable slope” mode). Table 3 provides the inhibitory activity of the compounds of the present disclosure against the proliferation of HCT116 cells.

[1] = biological target: human PLK1 protein kinase (Homo sapiens (Human), UniProt P53350); experiment: PLK1 kinase activity in vitro, 33P isotope-labeled kinase activity assay; assay type: biochemical; conditions: 33P-ATP 30 μM, substrate Casein, PLK1 12 nM
human PLK1 protein kinase, sequence (P53350 whole entry): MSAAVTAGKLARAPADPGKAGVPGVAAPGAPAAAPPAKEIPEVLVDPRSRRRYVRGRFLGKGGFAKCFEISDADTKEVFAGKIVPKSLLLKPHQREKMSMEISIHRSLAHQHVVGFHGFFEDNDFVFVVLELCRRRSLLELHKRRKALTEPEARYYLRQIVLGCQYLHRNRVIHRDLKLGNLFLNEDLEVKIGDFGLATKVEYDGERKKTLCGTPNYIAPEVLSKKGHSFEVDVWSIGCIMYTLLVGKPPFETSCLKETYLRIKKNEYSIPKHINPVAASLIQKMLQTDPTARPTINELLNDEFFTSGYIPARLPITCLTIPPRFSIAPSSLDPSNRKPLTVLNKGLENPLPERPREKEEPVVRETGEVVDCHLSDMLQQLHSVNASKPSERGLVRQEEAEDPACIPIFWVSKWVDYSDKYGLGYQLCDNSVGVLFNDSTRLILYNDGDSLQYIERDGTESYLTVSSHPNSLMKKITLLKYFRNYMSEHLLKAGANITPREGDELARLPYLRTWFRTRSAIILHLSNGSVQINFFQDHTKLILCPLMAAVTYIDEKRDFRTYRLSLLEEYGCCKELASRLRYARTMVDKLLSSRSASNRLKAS
Protocol: The ^33P isotope-labeled kinase activity assay (Reaction Biology Corp) was used to determine the IC50 value to evaluate the inhibitory ability of the test compound to human PLK1 protein kinase.
Buffer conditions: 20 mM HEPES (pH 7.5), 10 mM MgCl2, 1 mM EGTA, 0.01% Brij35, 0.02 mg/ml BSA, 0.1 mM Na3VO4, 2 mM DTT, 1% DMSO
Test steps: At room temperature, the compounds to be tested were dissolved in DMSO to prepare a 10 mM solution for use. The substrate Casein was dissolved in a freshly prepared buffer (with a final concentration of 20 μM), and the tested PLK1 kinase (with a final concentration of 12 nM) was added thereto and mixed well. The acoustic wave pipetting system Echo 550 was used to add the mother solution of the test compound dissolved in DMSO to the above mixed reaction mixture according to the set final concentration gradient (the highest final concentration was 1 μM, 3-fold dilution, 10 gradients). After incubation at room temperature for 20 minutes, ^33P-ATP (30 μM) was added, and after incubation at room temperature for 120 minutes, the reaction mixture was spotted on P81 ion exchange filter paper (Whatman #3698-915).

[2] = test system: KRAS-mutant mCRC patients; conditions: cited from earlier work
[3] = Pharmacokinetic study in CD-1 male mice by oral administration and intravenous injection; assay type: in vivo; conditions: for Cmax: read-out: Peak concentration Cmax; for Vd: read-out: Apparent volume of distribution Vdss; for AUC(0-t): read-out: Area under the plasma concentration-time curve AUC0-24 h; for clearance: read-out: Clearance CL; for half-life: read-out: Half-life T½ (converted); for Tmax: read-out: Peak time Tmax; for bioavailability: read-out: Bioavailability F
Text: The purpose of this experiment is to study the pharmacokinetics of the test compound in the plasma of CD-1 male mice after intravenous injection and oral administration.
Intravenous injection group: an appropriate amount of the test compound was weighed and dissolved in 20% SBE-b-CD aqueous solution and the pH was adjusted to 4 to 5 with 6 M hydrochloric acid, and the mixture was vortexed for 2, minutes to obtain a clear solution, and then pH was adjusted around 7 with 5 N sodium hydroxide, and the mixture was vortexed for 1 minute to prepare a 1.5 mg/mL clear solution, which was filtered through a 0.22 μm microporous membrane for later use. CD-1 male mice from 6 to 10 weeks old were selected and given a solution of the test compound intravenously. Samples were collected at 0.083, 0.25, 0.5, 1, 2, 4, 6, 8, and 24 hours.
Oral administration group: an appropriate amount of the test compound was weighed and dissolved in 20% SBE-b-CD aqueous solution, and the pH was adjusted to 3 to 4 with 6 M hydrochloric acid, and the mixture was vortexed for 2, minutes to obtain a clear solution, and then pH was adjusted around 7 with 5 N sodium hydroxide, and mixture was vortexed for 1 minute to prepare a 2.0 mg/mL clear solution for later use. CD-1 male mice between 6 and 10 weeks of age were selected and given the test compounds orally. Samples were collected at 0.25, 0.5, 1, 2, 4, 6, 8, 10, and 24 hours.
Approximately 50 μL of whole blood was collected through the jugular vein at each time point for plasma preparation for concentration determination by high performance liquid chromatography-tandem mass spectrometry (LC-MS/MS). All animals were euthanized under CO2 anesthesia after collecting the PK samples at the last time point. The plasma concentration was processed using the non-compartmental model of WinNonlin™ Version 6.3 (Pharsight, Mountain View, CA) pharmacokinetic software, and the pharmacokinetic parameters were calculated using the linear logarithmic trapezoidal method, and the experimental results are shown in Table 4.

[4] = test system: human colon cancer HCT116 cells subcutaneous xenograft tumor; experiment: In vivo pharmacodynamic study, subcutaneous xenograft tumor model of human colon cancer HCT116 cells; parameters: species or system BALB/c Nude mouse; conditions: 60 mg/kg PO QD (5 days on, 2 days off), tumor volume on day 22 after dosing
Protocol: In this experiment, human colon cancer HCT116 cells were subcutaneously transplanted into BALB/c Nude mouse model to evaluate the antitumor effect of the test compound in vivo.
HCT116 cell culture: 10% fetal calf serum was added to McCoy's 5A medium and cultured in 37° C. 5% CO2 cell incubator. When the cell saturation reached 80% to 90% and the number reached the requirement, cells were collected, counted and inoculated subcutaneously into BALB/c Nude mice (female, 6 to 7 weeks old)
When the tumors grew to a certain size, the animals with tumor volumes that were too large, too small, or with irregular tumor shapes were eliminated, and animals with tumor volumes ranging from 103.12 to 174.35 mm^3 were selected. According to the tumor volume, the animals were divided into 6 groups by random block method, and each group was composed of 6 mice wherein the average volume of the tumor was about 147.12 mm^3 , and the experimental grouping and dosing regimen were shown in Table 5 below. The health status and death of the animals were monitored every day. Routine inspections included observation of tumor growth and the effects of drug treatment on the daily behavior of the animals, such as behavioral activities, food and water intake, body weight changes (measured twice a week), tumor size (tumor volume was measured twice a week), appearance signs or other abnormal conditions.
The formula for calculating tumor volume (TV) was: ½×a×b^2, where a and b were the measured length and width of the tumor, respectively. The formula for calculating the tumor inhibition rate TGI (%) was: TGI (%)=[1−(average tumor volume at the end of administration of a certain treatment group−average tumor volume at the beginning of administration of this treatment group)/(average tumor volume at the end of treatment of the solvent control group−average tumor volume at the beginning of treatment in solvent control group)]×100%.
In this study, the experimental data were expressed as Mean±SEM. Statistical analysis was based on the data of RTV at the end of the experiment using IBM SPSS Statistics software. The comparison between two groups was analyzed by T test, and the comparison between three or more groups was analyzed by one-way ANOVA. If the variances were homogeneous (the F value had no significant difference), the Tukey's method was used for analysis. If the variances were not homogeneous (the F value had significant differences), and the Games-Howell method was used for testing. p<0.05 was considered as a significant difference.

SMILES: COc1nnc(N2CCN(C)CC2)cc1Nc1ncc2c(n1)-c1c(SC)sc(C(N)=O)c1CC2 [Compound 17]
IC50 (HCT116 cells; Homo sapiens, HCT-116, 120 h): 18.3 nM

SMILES: CSc1sc(C(N)=O)c2c1-c1nc(Nc3cc(N4CCN(C)CC4)ccc3OC(F)F)ncc1CC2 [Compound 4]
IC50 (HCT116 cells): 35 nM
IC50 [1]: 1 nM

SMILES: CN1CCN(c2ccc(OC(F)(F)F)c(Nc3ncc4c(n3)-c3c(C#N)sc(C(N)=O)c3CC4)c2)CC1 [Compound 13]
IC50 [1]: 4.9 nM

SMILES: CN1CCN(c2ccc(OC(F)(F)F)c(Nc3ncc4c(n3)-c3c(c(C(N)=O)nn3CCO)CC4)c2)CC1 [Onvansertib]
safety profile in clinical studies ([2]; clinical studies): acceptable safety profile
clinical benefit ([2]; share of KRAS-mutant mCRC patients, early clinical research): 88%

SMILES: CSc1sc(C(N)=O)c2c1-c1nc(Nc3cc(N4CCN(C)CC4)ncc3OC(F)(F)F)ncc1CC2 [Compound 5]
IC50 [1]: 2.6 nM

SMILES: CN1CCN(c2ccc(OC(F)(F)F)c(Nc3ncc4c(n3)-c3c(OC5CC5)sc(C(N)=O)c3CC4)c2)CC1 [Compound 18]
IC50 (HCT116 cells): 74.5 nM
Apparent volume of distribution Vdss ([3]; IV, 1.1 mg/kg, plasma): 2.38 L/kg
Area under the plasma concentration-time curve AUC0-24 h ([3]; IV, 1.1 mg/kg, plasma): 0.94 µM·h
Clearance CL ([3]; IV, 1.1 mg/kg, plasma): 31.4 mL/min/kg
Half-life T½ ([3]; IV, 1.1 mg/kg, plasma): 73.2 min
Bioavailability F ([3]; PO 3.4 mg/kg vs IV 1.1 mg/kg): 82.5%
Area under the plasma concentration-time curve AUC0-24 h ([3]; PO, 3.4 mg/kg, plasma): 2.129 µM·h
Peak time Tmax ([3]; PO, 3.4 mg/kg, plasma): 60 min
Cmax ([3]; PO, 3.4 mg/kg, plasma): 688 nM
IC50 [1]: 4.3 nM

SMILES: CSc1sc(C(N)=O)c2c1-c1nc(Nc3cc(N4CC5CC(C4)N5C)ccc3OC(F)(F)F)ncc1CC2 [Compound 15]
IC50 [1]: 6.4 nM

SMILES: CSc1sc(C(N)=O)c2c1-c1nc(Nc3cc(N4CCN(CCO)CC4)ccc3OC(F)(F)F)ncc1CC2 [Compound 8]
TGI [4]: 85.4%
IC50 (HCT116 cells; Homo sapiens, HCT-116, 120 h): 52 nM
Vd ([3]; mouse, IV, 0.5 mg/kg, plasma): 2.04 L/kg
AUC(0-t) ([3]; mouse, IV, 0.5 mg/kg, plasma): 0.374 µM·h
clearance ([3]; mouse, IV, 0.5 mg/kg, plasma): 37.4 mL/min/kg
half-life ([3]; mouse, IV, 0.5 mg/kg, plasma): 44.4 min
AUC(0-t) ([3]; mouse, PO, 2.2 mg/kg, plasma): 0.459 µM·h
Cmax ([3]; mouse, PO, 2.2 mg/kg, plasma): 157 nM
Tmax ([3]; mouse, PO, 2.2 mg/kg, plasma): 45 min
bioavailability ([3]; mouse, plasma, PO 2.2 mg/kg vs IV 0.5 mg/kg): 30.9%

SMILES: CN1CCN(c2ccc(OC(F)(F)F)c(Nc3ncc4c(n3)-c3c(SCCO)sc(C(N)=O)c3CC4)c2)CC1 [Compound 3]
IC50 [1]: 5 nM

Further lines, with some results ahead:

IC50 (HCT116 cells; Homo sapiens, HCT-116, 120 h): 72 nM
SMILES: CSc1sc(C(=O)NO)c2c1-c1nc(Nc3cc(N4CCN(C)CC4)ccc3OC(F)(F)F)ncc1CC2 [Compound 23]

IC50 [1]: 6.9 nM
SMILES: CN1CCN(c2ccc(OC(F)(F)F)c(Nc3ncc4c(n3)-c3c(CCO)sc(C(N)=O)c3CC4)c2)CC1 [Compound 6]

IC50 (HCT116 cells; Homo sapiens, HCT-116, 120 h): 58.6 nM
SMILES: CN1CCN(c2ccc(OC(F)(F)F)c(Nc3ncc4c(n3)-c3c(-c5ccco5)sc(C(N)=O)c3CC4)c2)CC1 [Compound 20]

IC50 (HCT116 cells; Homo sapiens, HCT-116, 120 h): 29.2 nM
SMILES: CN1CCN(c2ccc(OC(F)(F)F)c(Nc3ncc4c(n3)-c3c(C5CC5)sc(C(N)=O)c3CC4)c2)CC1 [Compound 16]

IC50 (HCT116 cells; Homo sapiens, HCT-116, 120 h): 30.8 nM
Vd ([3]; mouse, IV, 1.0 mg/kg, plasma): 2.89 L/kg
AUC(0-t) ([3]; mouse, IV, 1.0 mg/kg, plasma): 0.624 µM·h
clearance ([3]; mouse, IV, 1.0 mg/kg, plasma): 47.9 mL/min/kg
half-life ([3]; mouse, IV, 1.0 mg/kg, plasma): 69 min
AUC(0-t) ([3]; mouse, PO, 3.0 mg/kg, plasma): 1.02 µM·h
Cmax ([3]; mouse, PO, 3.0 mg/kg, plasma): 478 nM
Tmax ([3]; mouse, PO, 3.0 mg/kg, plasma): 45 min
bioavailability ([3]; mouse, plasma, PO 3.0 mg/kg vs IV 1.0 mg/kg): 54.2%
SMILES: CCOc1sc(C(N)=O)c2c1-c1nc(Nc3cc(N4CCN(C)CC4)ccc3OC(F)(F)F)ncc1CC2 [Compound 2]
TGI [4]: 72.5%
